Data published in EP0224924B1, “Non-aromatic fluorallylamine MAO inhibitors” (MERRELL DOW PHARMACEUTICALS INC., priority 1985, dated 1987).
One block for each molecule: values may come before it.

How the values were obtained:
MAO-B [1] = molecular target: T1, MAO-B (Rattus norvegicus, UniProt P19643); test: Inhibition of MAO in vitro, rat brain mitochondria, 14C phenethylamine (PEA) as substrate; type: biochemical; conditions: ratio of the inhibitory activity against MAO-B versus MAO-A
T1 construct: in partially purified mitochondria from rat brain; from tissue; host or cells: rat brain mitochondria (partially purified, differential centrifugation)
T1 sequence (P19643 1-520): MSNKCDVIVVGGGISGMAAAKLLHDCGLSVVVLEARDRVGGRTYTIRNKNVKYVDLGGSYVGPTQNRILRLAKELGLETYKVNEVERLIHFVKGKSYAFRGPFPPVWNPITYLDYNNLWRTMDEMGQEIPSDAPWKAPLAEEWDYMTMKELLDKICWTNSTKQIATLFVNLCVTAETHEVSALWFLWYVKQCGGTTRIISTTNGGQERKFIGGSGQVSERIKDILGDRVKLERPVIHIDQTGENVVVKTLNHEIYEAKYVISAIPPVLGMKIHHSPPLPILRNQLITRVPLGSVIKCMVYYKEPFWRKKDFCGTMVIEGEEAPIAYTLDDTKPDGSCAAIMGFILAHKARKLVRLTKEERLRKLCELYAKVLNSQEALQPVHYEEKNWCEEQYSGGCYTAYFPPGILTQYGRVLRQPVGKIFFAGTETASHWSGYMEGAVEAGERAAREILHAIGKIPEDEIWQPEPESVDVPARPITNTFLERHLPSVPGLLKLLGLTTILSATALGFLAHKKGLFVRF
Source text: The ability of a compound of structure 1 to inhibit MAO can be determined in vitro by the method of A. Christmas et al., Br. J. Pharmacol. 45, 490 (1972) in partially purified mitochondria from rat brain using ¹⁴C o-tyramine or ¹⁴C phenethylamine and ¹⁴C 5-HT as the substrate. The MAO inhibitory activity of a compound is expressed as the "IC₅₀" value, which is the molar concentration required to produce 50% inhibition of the enzyme. The IC₅₀ values for certain compounds of structure 1 were determined using the above-described method, and the results are set forth in Table I.
The selectivity of a compound of structure 1 with respect to inhibition of MAO-A and MAO-B can be determined by preparing mitochondria from rat brain by homogenation in phosphate buffer (0.1 M, pH 7.2) followed by differential centrifugation. The mitochondria are suspended in the same buffer, the test compound is added at the desired concentration, and the system is incubated. At different time intervals, aliquots are taken and MAO activity is measured using ¹⁴C 5-hydroxytryptamine (5HT; a preferred substrate for MAO-A) or 14C-phenethylamine (PEA; a preferred substrate for MAO-B) as the substrates. The selectivity is expressed as the ratio of the inhibitory activity against MAO-B versus the inhibitory activity against MAO-A. (Zreika, McDonald, Bey, Palfreyman, J. Neurochem., 43, 448-454 (1984)).

MAO-B [2] = test: Inhibition of MAO ex vivo, brain mitochondrial fraction after oral dosing, 14C phenethylamine as substrate; type: in vivo; conditions: rats, orally (po)
Experimental: (§1) The ability of a compound of formula 1 to inhibit MAO can be determined ex vivo by the following procedure:
(§2) The test compound is administered orally (po) to rats and the animals are killed at various times after treatment. The brain is removed and a mitochondrial fraction, described in Example 12 is prepared. MAO activity is determined using ¹⁴C p-tyramine, as the substrate. Selectivity can be determined by repeating the above-described test using either ¹⁴C 5-hydroxytryptamine (for MAO-A) or ¹⁴C phenethylamine (for MAO-B) as the substrate for determining the % inhibition.

MAO-A = test: Inhibition of MAO ex vivo, brain mitochondrial fraction after oral dosing, 14C 5-hydroxytryptamine as substrate; type: in vivo; conditions: rats, orally (po)
Experimental: as §1, §2

Compound: CCCCCCC/C(=C\F)CN [(E)-2-Heptyl-3-fluoroallylamine]
MAO B SELECTIVITY (MAO-B [1]): 13

Compound: CCCCCC/C(=C\F)CN [(E)-2-Hexyl-3-fluoroallylamine]
MAO B SELECTIVITY (MAO-B [1]): 24

Compound: CCCC/C(=C\F)CN [(E)-2-Butyl-3-fluoroallylamine]
MAO B SELECTIVITY (MAO-B [1]): 55

Compound: CCCCCCCCCCC/C(=C\F)CN [(E)-2-Undecyl-3-fluoroallylamine]
MAO B SELECTIVITY (MAO-B [1]): 1.5

Second part, led by results:

MAO B SELECTIVITY (MAO-B [1]): 24
Compound: CCC(C)/C(=C\F)CN (stereo not drawn) [(E)-2-sec-Butyl-3-fluoroallylamine]

MAO B SELECTIVITY (MAO-B [1]): 68
Compound: CC(C)/C(=C\F)CN [(E)-2-Isopropyl-3-fluoroallylamine]

MAO B SELECTIVITY (MAO-B [1]): 77
Compound: CC(C)C/C(=C\F)CN [(E)-2-Isobutyl-3-fluoroallylamine]
ED50 for MAO-B inhibition (MAO-B [2]): 0.05 mg/kg | ED50 for MAO-A inhibition (MAO-A): 0.8 mg/kg
